Results on 11 compounds are retold here after ChEMBL document CHEMBL1201862, “PubChem BioAssay data set” (2004).

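96-well plates; 48 h exposure; 5 concentrations. Endpoints by linear interpolation between flanking doses. Not reached: highest tested concentration assigned. The concentration for 50% growth inhibition is given as GI50.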 Active and inactive are the calls of the source. Rule as the data show it: active = GI50 up to about 1.1 µM and inactive = higher. Some results are limits rather than exact numbers.

Some test systems named below: MDA-MB-435; K562; HCT-15; NCI-H460; RPMI-8226; DU-145; UACC-257; NCI-H23; 786-0; OVCAR-5; TK-10; A498; UACC-62; SF-539; OVCAR-3; ACHN; SNB-75; A549; HCC 2998; RXF 393.
What all share (test): inhibition of tumour cell growth, NCI panel, 48 h

Turning to `CC1(C)CC(=O)C2=C(C1)c1c(ccc3ccccc13)NC2c1cn(Cc2ccc(Cl)cc2)c2ccccc12` (stereo not drawn), the GI50 was > 100 µM (inactive) with MDA-MB-435; 50.9 µM (inactive) in the experiment on K562; over 100 µM in the experiment with HCT-15; 23.9 µM (inactive) with NCI-H460; > 100 µM (inactive) in the experiment on RPMI-8226; > 100 µM (inactive) in the experiment with DU-145. In addition, the GI50 in the experiment on UACC-257 was 94.2 µM (inactive); in the experiment with NCI-H23, 80.7 µM (inactive); in the experiment with 786-0, > 100 µM (inactive); in the experiment with OVCAR-5, 36.5 µM (inactive); in the experiment on TK-10, 27.7 µM (inactive); in the experiment with A498 it was 2.55 µM (inactive). The GI50 in the experiment on UACC-62 is > 100 µM (inactive); in the experiment on SF-539, > 100 µM (inactive); with OVCAR-3 it was 18.7 µM (inactive); with ACHN it was 61.9 µM (inactive); in the experiment on SNB-75, > 100 µM (inactive); with A549, > 100 µM (inactive).
On to `O=C(O)c1ccc(C(c2c(O)oc3ccccc3c2=O)c2c(O)oc3ccccc3c2=O)cc1`, for which the GI50 was > 100 µM (inactive) in the experiment on MDA-MB-435; 15.5 µM (inactive) with K562; over 100 µM in the experiment with HCT-15; > 100 µM (inactive) with NCI-H460; 1.02 µM (active) in the experiment with RPMI-8226; > 100 µM (inactive) in the experiment with DU-145. Besides, the GI50 in the experiment with HCC 2998 was 29.3 µM (inactive); with UACC-257, > 100 µM (inactive); in the experiment with NCI-H23 it was 59.7 µM (inactive); with 786-0 it was > 100 µM (inactive); in the experiment on OVCAR-5, 86.3 µM (inactive); with RXF 393, > 100 µM (inactive). Besides, the GI50 with A498 was 2.92 µM (inactive); with UACC-62, > 100 µM (inactive); in the experiment on SF-539 it was > 100 µM (inactive); in the experiment on OVCAR-3, > 100 µM (inactive); with ACHN, > 100 µM (inactive); in the experiment on A549, > 100 µM (inactive).
As for `CC(=O)c1cc2ccccc2[n+]([O-])c1N`, the GI50 was > 100 µM (inactive) with MDA-MB-435; over 100 µM in the experiment with HCT-15; > 100 µM (inactive) in the experiment on NCI-H460; > 100 µM (inactive) in the experiment on DU-145; > 100 µM (inactive) with HCC 2998; > 100 µM (inactive) in the experiment on UACC-257. Further, the GI50 in the experiment with NCI-H23, with 786-0, in the experiment with OVCAR-5, in the experiment on RXF 393, with TK-10 and in the experiment on A498 was > 100 µM (inactive) throughout. Further, the GI50 in the experiment on UACC-62, in the experiment on SF-539, with OVCAR-3, with ACHN and in the experiment on A549 was > 100 µM (inactive) throughout.
Consider `O=[N+]([O-])/C=C/c1cn(CCCCCn2cc(/C=C/[N+](=O)[O-])c3ccccc32)c2ccccc12`, for which the GI50 was 0.953 µM (active) in the experiment on MDA-MB-435; 0.83 µM (active) with K562; 2.17 µM in the experiment on HCT-15; 1.79 µM (inactive) with NCI-H460; 0.24 µM (active) in the experiment with RPMI-8226; 2.19 µM (inactive) with DU-145. The GI50 in the experiment with HCC 2998 was 1.04 µM (active); with UACC-257, 3.27 µM (inactive); with NCI-H23, 4.02 µM (inactive); in the experiment on 786-0, 0.392 µM (active); in the experiment on OVCAR-5 it was 9.55 µM (inactive); in the experiment with RXF 393 it was 0.582 µM (active). In addition, the GI50 with TK-10 was 1.82 µM (inactive); with A498 it was 1.94 µM (inactive); in the experiment on UACC-62 it was 6.95 µM (inactive); in the experiment with SF-539 it was 1.88 µM (inactive); in the experiment on OVCAR-3, 1.78 µM (inactive); in the experiment with ACHN it was 4.66 µM (inactive). Besides, the GI50 in the experiment on A549 was 2.96 µM (inactive).
With `Clc1sc(Cl)c2c1[C@H](Cl)C[C@@H]2Cl`, the GI50 was 18.2 µM (inactive) with MDA-MB-435; 6 µM (inactive) in the experiment with K562; 20.2 µM with HCT-15; 49.2 µM (inactive) with NCI-H460; 27.5 µM (inactive) in the experiment on DU-145; 15.2 µM (inactive) in the experiment with HCC 2998. Besides, the GI50 in the experiment on UACC-257 is 24.3 µM (inactive); with NCI-H23 it was 24.4 µM (inactive); in the experiment on 786-0 it was 19.6 µM (inactive); with OVCAR-5 it was 29.2 µM (inactive); with TK-10, 39.5 µM (inactive); in the experiment on A498, 84.1 µM (inactive). Also, the GI50 was 22.2 µM (inactive) with UACC-62; 18.7 µM (inactive) in the experiment with SF-539; 24.2 µM (inactive) in the experiment on OVCAR-3; 33.2 µM (inactive) in the experiment with ACHN; 20 µM (inactive) in the experiment with SNB-75; 21.2 µM (inactive) with A549.
As for `O=C(NCCCc1cn[nH]c(=O)n1)c1cccc2nc3ccccc3nc12`, the GI50 was > 100 µM (inactive) in the experiment on MDA-MB-435; > 100 µM (inactive) in the experiment on K562; over 100 µM with HCT-15; > 100 µM (inactive) with NCI-H460; > 100 µM (inactive) in the experiment on RPMI-8226; 63 µM (inactive) in the experiment with DU-145. Further, the GI50 was > 100 µM (inactive) in the experiment on HCC 2998; > 100 µM (inactive) with UACC-257; > 100 µM (inactive) in the experiment with NCI-H23; 40.7 µM (inactive) with 786-0; > 100 µM (inactive) with OVCAR-5; 41.5 µM (inactive) in the experiment on RXF 393. Besides, the GI50 with TK-10 is 36.5 µM (inactive); in the experiment on A498, > 100 µM (inactive); in the experiment with UACC-62 it was > 100 µM (inactive); in the experiment with SF-539 it was > 100 µM (inactive); in the experiment on OVCAR-3, > 100 µM (inactive); in the experiment on ACHN, 31.6 µM (inactive). In addition, in the experiment on A549, the GI50 was > 100 µM (inactive).
For the compound `Brc1ccc(C2(N3CCCCC3)CCCCC2)s1`, the GI50 in the experiment with MDA-MB-435 was 23.9 µM (inactive); with K562 it was 21.1 µM (inactive); in the experiment with NCI-H460 it was 26.7 µM (inactive); in the experiment on RPMI-8226, 19.6 µM (inactive); with DU-145, 56.6 µM (inactive); in the experiment on HCC 2998 it was 15.7 µM (inactive). Also, the GI50 in the experiment with UACC-257 is 29.8 µM (inactive); in the experiment with NCI-H23 it was 37.3 µM (inactive); in the experiment with 786-0 it was > 100 µM (inactive); with OVCAR-5 it was 67 µM (inactive); in the experiment with RXF 393, 14.3 µM (inactive); in the experiment with TK-10 it was 37.5 µM (inactive). Also, the GI50 in the experiment with A498 was 66.7 µM (inactive); in the experiment on UACC-62, 35.5 µM (inactive); in the experiment with OVCAR-3, 38.7 µM (inactive); in the experiment with ACHN it was 51.1 µM (inactive); in the experiment on A549 it was 39 µM (inactive).
Consider `O=S1(=O)NN=C(NCc2ccc(F)cc2)c2ccccc21`, for which the GI50 in the experiment with MDA-MB-435 was > 100 µM (inactive); in the experiment on K562, 21 µM (inactive); in the experiment with HCT-15, over 64.1 µM; in the experiment with NCI-H460, > 31.6 µM (inactive); with RPMI-8226, > 40.7 µM (inactive); with DU-145, > 100 µM (inactive). In addition, the GI50 in the experiment on HCC 2998 is > 67.6 µM (inactive); with UACC-257, 69.2 µM (inactive); in the experiment with NCI-H23, > 100 µM (inactive); with 786-0, > 50.9 µM (inactive); in the experiment on OVCAR-5 it was > 100 µM (inactive); with RXF 393 it was 34.9 µM (inactive). Moreover, the GI50 in the experiment with A498 was > 100 µM (inactive); in the experiment with UACC-62 it was 34.7 µM (inactive); in the experiment on SF-539, > 85.5 µM (inactive); with OVCAR-3, 67.5 µM (inactive); with ACHN it was 95.5 µM (inactive); with A549, > 90.2 µM (inactive).
For the compound `Cn1c(-c2ccc[se]2)ccc1-c1ccc(C=O)[se]1`, the GI50 with MDA-MB-435 is 11.4 µM (inactive); in the experiment with K562, 0.323 µM (active); in the experiment with HCT-15, 8.15 µM; with NCI-H460, 0.308 µM (active); in the experiment on RPMI-8226 it was 1.03 µM (active); in the experiment with DU-145, 29.4 µM (inactive). Besides, the GI50 is 2.47 µM (inactive) in the experiment on HCC 2998; 0.796 µM (active) in the experiment on UACC-257; 12.4 µM (inactive) in the experiment with NCI-H23; 20.9 µM (inactive) in the experiment on 786-0; 0.0418 µM (active) in the experiment with OVCAR-5; 0.124 µM (active) in the experiment on TK-10. Further, the GI50 is 1.17 µM (inactive) in the experiment on A498; 0.205 µM (active) in the experiment with UACC-62; 3.89 µM (inactive) in the experiment on SF-539; 0.366 µM (active) with OVCAR-3; 46.6 µM (inactive) in the experiment with ACHN; 23 µM (inactive) in the experiment on SNB-75. In addition, the GI50 in the experiment with A549 is 23.3 µM (inactive).
As to `COC(=O)c1c(O)ccc2c1c1c(n2Cc2ccccc2Cl)C(=O)c2ccccc2C1=O`, the GI50 was 10.7 µM (inactive) with MDA-MB-435; 14.3 µM (inactive) in the experiment with K562; 12.7 µM with HCT-15; 6.78 µM (inactive) in the experiment on NCI-H460; 5.98 µM (inactive) in the experiment on RPMI-8226; 15.5 µM (inactive) with DU-145. For the same compound, the GI50 in the experiment with HCC 2998 is 14.6 µM (inactive); in the experiment with UACC-257, 17.9 µM (inactive); in the experiment on NCI-H23, 13.2 µM (inactive); in the experiment with 786-0 it was 16.6 µM (inactive); in the experiment with OVCAR-5 it was 19.5 µM (inactive); in the experiment with RXF 393 it was 16.3 µM (inactive). In addition, the GI50 in the experiment on TK-10 is 16.1 µM (inactive); with A498 it was 16.5 µM (inactive); in the experiment with UACC-62 it was 14.8 µM (inactive); in the experiment with SF-539, 15.4 µM (inactive); in the experiment with OVCAR-3 it was 10 µM (inactive); in the experiment with ACHN, 16.5 µM (inactive). In addition, in the experiment on A549, the GI50 is 8.69 µM (inactive).
`O=C(CN1CCCC1)Nc1ccc2c(c1)C1Oc3ccccc3CC1CO2` (stereo not drawn): the GI50 in the experiment on MDA-MB-435 is 22.2 µM (inactive); with K562 it was 38.6 µM (inactive); with HCT-15 it was 18.6 µM; with RPMI-8226, 25.1 µM (inactive); in the experiment with DU-145, > 100 µM (inactive); with HCC 2998 it was 16.8 µM (inactive). Also, the GI50 was 21.2 µM (inactive) in the experiment with UACC-257; 38.5 µM (inactive) in the experiment with NCI-H23; 24.7 µM (inactive) with 786-0; 30.9 µM (inactive) in the experiment with OVCAR-5; 49 µM (inactive) with TK-10; > 100 µM (inactive) in the experiment with A498. In addition, the GI50 is 17 µM (inactive) with UACC-62, 18.8 µM (inactive) with SF-539, 57.5 µM (inactive) with OVCAR-3 and 41.7 µM (inactive) with A549.
